ChEMBL document CHEMBL2086238, “Identification of ETP-46321, a potent and orally bioavailable PI3K α, δ inhibitor” (Bioorg Med Chem Lett, 2012)
Active and inactive are the calls of the source. No cut-off for these calls is given here.

Legend:
[1] = biological target: Hepatocyte growth factor receptor (Homo sapiens) (UniProt P08581); assay: Inhibition of MET at 1 uM
[2] = Inhibition of PDGFR at 5 uM
[3] = biological target: Fibroblast growth factor receptor 1 (Homo sapiens) (UniProt P11362); assay: Inhibition of FGFR1 at 5 uM
[4] = biological target: PI3-kinase p110-alpha/p85-alpha (Homo sapiens, UniProt P42336); assay: Inhibition of human PI3Kalpha (p110alpha/p85alpha) by ADP accumulation based HTRF assay; assay type: protein-complex assay; settings: for Ki: read-out: Ki(app)
[5] = biological target: RAC-alpha serine/threonine-protein kinase (Homo sapiens) (UniProt P31749); assay: Inhibition of AKT1 at 5 uM
[6] = biological target: Phosphatidylinositol 4,5-bisphosphate 3-kinase catalytic subunit gamma isoform (Homo sapiens, UniProt P48736); assay: Inhibition of human PI3Kgamma by ADP accumulation based HTRF assay; settings: read-out: Ki(app)
[7] = biological target: PI3-kinase p110-delta/p85-alpha (Homo sapiens, UniProt O00329); assay: Inhibition of human PI3Kdelta (p110delta/p85alpha) by ADP accumulation based HTRF assay; assay type: protein-complex assay; settings: read-out: Ki(app)
[8] = biological target: PI3K p110 beta/p85 alpha (Homo sapiens, UniProt P42338); assay: Inhibition of human PI3Kbeta (p110beta/p85alpha) by ADP accumulation based HTRF assay; assay type: protein-complex assay; settings: read-out: Ki(app)
[9] = biological target: T1, Inhibitor of nuclear factor kappa-B kinase subunit beta (Homo sapiens) (UniProt O14920); assay: Inhibition of IKKbeta at 5 uM
T1 sequence (whole entry): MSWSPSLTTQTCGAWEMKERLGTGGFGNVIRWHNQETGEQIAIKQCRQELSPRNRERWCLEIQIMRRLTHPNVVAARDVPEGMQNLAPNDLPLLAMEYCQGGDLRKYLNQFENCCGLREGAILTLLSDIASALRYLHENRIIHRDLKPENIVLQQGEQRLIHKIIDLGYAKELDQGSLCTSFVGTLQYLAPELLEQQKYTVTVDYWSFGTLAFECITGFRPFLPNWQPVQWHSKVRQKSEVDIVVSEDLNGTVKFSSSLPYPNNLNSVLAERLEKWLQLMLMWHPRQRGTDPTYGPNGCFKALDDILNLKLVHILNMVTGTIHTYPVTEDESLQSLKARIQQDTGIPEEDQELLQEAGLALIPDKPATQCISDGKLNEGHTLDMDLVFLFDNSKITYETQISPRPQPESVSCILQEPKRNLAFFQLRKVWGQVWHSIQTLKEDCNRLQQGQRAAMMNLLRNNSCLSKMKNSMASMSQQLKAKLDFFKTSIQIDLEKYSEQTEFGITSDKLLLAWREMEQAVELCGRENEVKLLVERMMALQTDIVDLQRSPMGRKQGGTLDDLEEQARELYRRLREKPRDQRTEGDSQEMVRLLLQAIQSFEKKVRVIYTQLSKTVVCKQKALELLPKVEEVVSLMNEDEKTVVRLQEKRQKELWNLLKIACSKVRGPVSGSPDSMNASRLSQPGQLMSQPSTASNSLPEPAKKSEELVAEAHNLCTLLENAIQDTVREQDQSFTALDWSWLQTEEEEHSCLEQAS

[10] = biological target: Receptor-type tyrosine-protein kinase FLT3 (Homo sapiens) (UniProt P36888); assay: Inhibition of FLT3 at 5 uM
[11] = biological target: CYP2C19 (Homo sapiens, UniProt P33261); assay: Inhibition of CYP2C19 at 10 uM; assay type: ADME
[12] = biological target: Dual specificity tyrosine-phosphorylation-regulated kinase 1A (Homo sapiens) (UniProt Q13627); assay: Inhibition of DYRK1A at 5 uM
[13] = biological target: T2, CYP1A2 (Homo sapiens, UniProt P05177); assay: Inhibition of CYP1A2 at 10 uM; assay type: ADME
T2 sequence (P05177 whole entry): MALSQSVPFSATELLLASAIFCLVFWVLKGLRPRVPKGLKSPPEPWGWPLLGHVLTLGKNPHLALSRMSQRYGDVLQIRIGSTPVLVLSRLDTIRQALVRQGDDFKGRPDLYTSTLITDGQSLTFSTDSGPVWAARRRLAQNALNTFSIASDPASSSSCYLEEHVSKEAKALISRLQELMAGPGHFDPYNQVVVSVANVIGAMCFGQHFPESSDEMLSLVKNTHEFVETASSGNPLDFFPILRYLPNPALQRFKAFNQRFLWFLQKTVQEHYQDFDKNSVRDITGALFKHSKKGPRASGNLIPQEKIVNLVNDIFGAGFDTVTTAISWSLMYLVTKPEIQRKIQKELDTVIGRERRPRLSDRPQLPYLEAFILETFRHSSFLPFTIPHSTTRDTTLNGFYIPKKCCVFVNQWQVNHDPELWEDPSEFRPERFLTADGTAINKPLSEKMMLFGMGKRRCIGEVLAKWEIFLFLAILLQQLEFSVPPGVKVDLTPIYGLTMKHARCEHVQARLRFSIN

[14] = biological target: Hepatocyte growth factor receptor (Homo sapiens) (UniProt P08581); assay: Inhibition of MET at 5 uM
[15] = biological target: Tyrosine-protein kinase JAK2 (Homo sapiens) (UniProt O60674); assay: Inhibition of JAK2 at 1 uM
[16] = biological target: RAC-alpha serine/threonine-protein kinase (Homo sapiens) (UniProt P31749); assay: Inhibition of AKT1 at 1 uM
[17] = biological target: Casein kinase I isoform alpha (Homo sapiens) (UniProt P48729); assay: Inhibition of CK1alpha1 at 1 uM
[18] = biological target: Receptor-type tyrosine-protein kinase FLT3 (Homo sapiens) (UniProt P36888); assay: Inhibition of FLT3 at 1 uM
[19] = biological target: Epidermal growth factor receptor (Homo sapiens) (UniProt P00533); assay: Inhibition of EGFR at 1 uM
[20] = biological target: Phosphatidylinositol 4,5-bisphosphate 3-kinase catalytic subunit alpha isoform (Homo sapiens, UniProt P42336, H1047R); assay: Inhibition of human PI3Kalpha H1047R mutant by ADP accumulation based HTRF assay; settings: read-out: Ki(app)
[21] = biological target: Phosphatidylinositol 4,5-bisphosphate 3-kinase catalytic subunit alpha isoform (Homo sapiens, UniProt P42336, E545K); assay: Inhibition of human PI3Kalpha E545K mutant by ADP accumulation based HTRF assay; settings: read-out: Ki(app)
[22] = biological target: Phosphatidylinositol 4,5-bisphosphate 3-kinase catalytic subunit alpha isoform (Homo sapiens, UniProt P42336, E542K); assay: Inhibition of human PI3Kalpha E542K mutant by ADP accumulation based HTRF assay; settings: read-out: Ki(app)
[23] = test system: Mus musculus; assay: Antitumor activity in tamoxifen-induced mouse tumor model assessed as reduction in lung metabolic activity at 50 mg/kg/day, po for 3 weeks by [18F]FDG uptake based PET-CT method; assay type: functional, organism-based
[24] = test system: Mus musculus; assay: Antitumor activity in tamoxifen-induced mouse tumor model assessed as tumor growth inhibition at 50 mg/kg/day, po for 3 weeks by computed tomography; assay type: functional; settings: 504 h, read-out: GI
[25] = Clearance in BALB-C mouse; assay type: ADME, organism-based; settings: in vivo
[26] = test system: Mus musculus; assay: In-vivo inhibition of PI3Kalpha-mediated AKT Ser 473 phosphorylation in lung of tamoxifen-induced mouse tumor model at 50 mg/kg, po measured 2 to 4 hrs post dose; assay type: functional
[27] = Oral bioavailability in BALB-C mouse; assay type: ADME, organism-based; settings: in vivo
[28] = test system: Mus musculus; assay: Antitumor activity in tamoxifen-induced mouse tumor model assessed as reduction in lung [18F]FDG uptake at 50 mg/kg/day, po for 3 weeks by PET-CT method; assay type: functional, organism-based

Sequence of Casein kinase I isoform alpha (Homo sapiens) (P48729 2-337 limits assumed): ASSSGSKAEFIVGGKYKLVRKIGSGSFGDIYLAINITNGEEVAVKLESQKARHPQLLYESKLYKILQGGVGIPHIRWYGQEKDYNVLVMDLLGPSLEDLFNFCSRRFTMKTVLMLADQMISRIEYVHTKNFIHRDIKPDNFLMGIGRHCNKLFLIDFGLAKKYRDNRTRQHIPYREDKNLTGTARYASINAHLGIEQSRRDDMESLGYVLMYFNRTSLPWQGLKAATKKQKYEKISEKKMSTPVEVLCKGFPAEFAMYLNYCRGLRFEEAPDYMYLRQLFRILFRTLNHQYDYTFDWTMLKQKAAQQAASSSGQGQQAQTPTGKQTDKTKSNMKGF
Sequence of PI3-kinase p110-alpha/p85-alpha (P27986 whole entry): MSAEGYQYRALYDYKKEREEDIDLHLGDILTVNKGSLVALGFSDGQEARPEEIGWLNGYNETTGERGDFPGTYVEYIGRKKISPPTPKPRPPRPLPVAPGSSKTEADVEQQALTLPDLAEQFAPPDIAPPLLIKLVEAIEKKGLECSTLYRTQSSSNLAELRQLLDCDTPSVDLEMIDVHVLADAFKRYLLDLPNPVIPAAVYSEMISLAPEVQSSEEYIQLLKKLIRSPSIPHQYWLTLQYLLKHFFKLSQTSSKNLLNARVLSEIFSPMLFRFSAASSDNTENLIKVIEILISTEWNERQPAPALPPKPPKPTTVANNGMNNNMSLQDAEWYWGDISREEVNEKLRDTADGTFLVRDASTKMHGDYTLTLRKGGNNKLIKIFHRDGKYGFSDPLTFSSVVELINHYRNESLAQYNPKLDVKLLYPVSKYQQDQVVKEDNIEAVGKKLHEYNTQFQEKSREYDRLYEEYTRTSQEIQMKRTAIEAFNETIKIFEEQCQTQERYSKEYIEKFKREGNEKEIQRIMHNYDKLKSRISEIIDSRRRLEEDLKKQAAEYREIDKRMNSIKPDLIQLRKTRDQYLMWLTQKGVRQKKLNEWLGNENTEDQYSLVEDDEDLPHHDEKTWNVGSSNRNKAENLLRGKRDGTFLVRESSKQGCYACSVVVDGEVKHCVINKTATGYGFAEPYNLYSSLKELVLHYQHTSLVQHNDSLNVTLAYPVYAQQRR
Sequence of PI3-kinase p110-alpha/p85-alpha (P42336 whole entry): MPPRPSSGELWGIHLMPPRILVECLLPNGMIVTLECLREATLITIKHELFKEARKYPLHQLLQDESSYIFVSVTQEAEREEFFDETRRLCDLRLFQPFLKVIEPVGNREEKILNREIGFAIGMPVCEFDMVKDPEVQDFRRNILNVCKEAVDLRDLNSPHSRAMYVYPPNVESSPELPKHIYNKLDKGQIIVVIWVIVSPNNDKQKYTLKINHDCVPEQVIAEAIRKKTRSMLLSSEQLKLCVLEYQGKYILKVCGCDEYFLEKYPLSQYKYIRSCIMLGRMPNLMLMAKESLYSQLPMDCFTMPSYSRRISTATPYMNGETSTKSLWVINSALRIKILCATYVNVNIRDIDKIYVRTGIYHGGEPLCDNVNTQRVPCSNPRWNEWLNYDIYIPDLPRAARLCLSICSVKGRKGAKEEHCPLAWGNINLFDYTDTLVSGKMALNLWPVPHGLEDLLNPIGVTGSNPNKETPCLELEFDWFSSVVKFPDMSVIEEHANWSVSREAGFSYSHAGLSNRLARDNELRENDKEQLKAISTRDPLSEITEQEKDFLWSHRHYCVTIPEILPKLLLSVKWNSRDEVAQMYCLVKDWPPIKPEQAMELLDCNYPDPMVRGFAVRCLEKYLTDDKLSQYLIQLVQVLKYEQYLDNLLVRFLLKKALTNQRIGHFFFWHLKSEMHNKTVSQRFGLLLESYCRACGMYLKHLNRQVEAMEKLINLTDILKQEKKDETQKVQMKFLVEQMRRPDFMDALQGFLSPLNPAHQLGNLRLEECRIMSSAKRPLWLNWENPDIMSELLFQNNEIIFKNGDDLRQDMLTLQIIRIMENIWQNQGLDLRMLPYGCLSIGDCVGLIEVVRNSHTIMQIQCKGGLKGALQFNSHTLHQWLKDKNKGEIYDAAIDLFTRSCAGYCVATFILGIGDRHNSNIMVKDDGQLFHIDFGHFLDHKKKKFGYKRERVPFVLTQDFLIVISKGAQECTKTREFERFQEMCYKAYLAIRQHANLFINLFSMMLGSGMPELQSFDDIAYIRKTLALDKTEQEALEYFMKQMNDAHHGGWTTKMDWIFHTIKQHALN
Sequence of Hepatocyte growth factor receptor (Homo sapiens) (P08581 whole entry): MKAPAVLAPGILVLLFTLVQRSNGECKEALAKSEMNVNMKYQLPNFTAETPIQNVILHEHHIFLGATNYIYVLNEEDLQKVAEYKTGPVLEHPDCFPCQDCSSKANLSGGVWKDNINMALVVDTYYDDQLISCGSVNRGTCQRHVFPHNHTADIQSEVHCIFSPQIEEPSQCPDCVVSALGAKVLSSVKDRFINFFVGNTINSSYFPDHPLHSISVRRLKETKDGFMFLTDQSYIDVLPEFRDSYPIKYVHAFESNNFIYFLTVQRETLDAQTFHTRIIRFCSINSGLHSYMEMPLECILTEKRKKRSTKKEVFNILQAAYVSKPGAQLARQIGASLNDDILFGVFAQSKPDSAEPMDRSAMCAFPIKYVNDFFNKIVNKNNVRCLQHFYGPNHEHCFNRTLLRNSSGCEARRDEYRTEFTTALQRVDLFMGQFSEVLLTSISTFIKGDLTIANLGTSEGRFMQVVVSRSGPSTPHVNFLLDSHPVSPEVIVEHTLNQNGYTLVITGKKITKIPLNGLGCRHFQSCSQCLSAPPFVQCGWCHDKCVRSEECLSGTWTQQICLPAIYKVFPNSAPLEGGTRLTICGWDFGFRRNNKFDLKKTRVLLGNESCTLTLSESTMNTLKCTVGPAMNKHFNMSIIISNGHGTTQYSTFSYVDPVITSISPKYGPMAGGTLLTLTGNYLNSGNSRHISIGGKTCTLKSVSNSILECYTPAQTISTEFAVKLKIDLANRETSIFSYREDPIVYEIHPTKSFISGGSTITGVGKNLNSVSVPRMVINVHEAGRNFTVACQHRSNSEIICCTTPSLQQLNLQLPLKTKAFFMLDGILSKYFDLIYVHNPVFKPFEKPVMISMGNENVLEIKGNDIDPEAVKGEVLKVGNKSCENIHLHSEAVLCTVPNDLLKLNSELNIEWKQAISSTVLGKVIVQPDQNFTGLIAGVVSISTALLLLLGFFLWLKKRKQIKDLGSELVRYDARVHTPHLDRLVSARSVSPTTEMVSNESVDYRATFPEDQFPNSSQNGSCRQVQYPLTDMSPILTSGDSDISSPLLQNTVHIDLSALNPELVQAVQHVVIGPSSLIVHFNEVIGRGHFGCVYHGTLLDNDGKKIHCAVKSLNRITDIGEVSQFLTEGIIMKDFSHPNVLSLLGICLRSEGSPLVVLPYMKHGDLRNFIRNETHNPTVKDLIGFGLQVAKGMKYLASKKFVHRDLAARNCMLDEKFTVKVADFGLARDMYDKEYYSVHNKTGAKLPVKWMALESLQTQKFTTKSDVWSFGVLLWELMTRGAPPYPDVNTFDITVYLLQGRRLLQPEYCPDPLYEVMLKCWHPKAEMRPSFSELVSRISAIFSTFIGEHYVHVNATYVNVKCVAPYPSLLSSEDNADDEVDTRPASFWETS
Sequence of Receptor-type tyrosine-protein kinase FLT3 (Homo sapiens) (P36888 whole entry): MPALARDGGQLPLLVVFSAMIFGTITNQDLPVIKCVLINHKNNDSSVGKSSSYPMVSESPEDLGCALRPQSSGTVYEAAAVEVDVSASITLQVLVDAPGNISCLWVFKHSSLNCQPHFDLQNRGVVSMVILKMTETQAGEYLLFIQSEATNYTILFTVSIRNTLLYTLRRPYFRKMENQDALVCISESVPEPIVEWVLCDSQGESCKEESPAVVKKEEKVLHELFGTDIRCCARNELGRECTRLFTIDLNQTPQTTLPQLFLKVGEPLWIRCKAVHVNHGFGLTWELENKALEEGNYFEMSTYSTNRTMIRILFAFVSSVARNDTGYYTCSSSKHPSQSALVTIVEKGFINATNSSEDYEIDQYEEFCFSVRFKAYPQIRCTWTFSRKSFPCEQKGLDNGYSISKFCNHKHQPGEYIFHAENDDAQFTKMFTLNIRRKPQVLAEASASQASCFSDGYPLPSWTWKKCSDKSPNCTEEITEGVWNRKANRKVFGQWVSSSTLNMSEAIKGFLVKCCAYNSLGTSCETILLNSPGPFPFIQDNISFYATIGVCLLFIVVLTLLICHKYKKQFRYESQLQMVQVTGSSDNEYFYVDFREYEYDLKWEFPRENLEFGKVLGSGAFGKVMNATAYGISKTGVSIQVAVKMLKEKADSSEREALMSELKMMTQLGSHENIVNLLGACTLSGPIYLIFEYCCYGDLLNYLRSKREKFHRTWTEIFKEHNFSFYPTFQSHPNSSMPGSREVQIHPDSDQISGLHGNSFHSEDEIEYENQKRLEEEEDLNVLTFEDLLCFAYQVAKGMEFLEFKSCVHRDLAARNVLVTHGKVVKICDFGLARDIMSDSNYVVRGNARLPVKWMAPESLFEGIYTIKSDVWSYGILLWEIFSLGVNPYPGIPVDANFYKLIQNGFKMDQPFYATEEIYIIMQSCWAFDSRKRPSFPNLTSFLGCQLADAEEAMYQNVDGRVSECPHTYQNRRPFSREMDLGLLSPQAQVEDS
Sequence of CYP2C19 (P33261 whole entry): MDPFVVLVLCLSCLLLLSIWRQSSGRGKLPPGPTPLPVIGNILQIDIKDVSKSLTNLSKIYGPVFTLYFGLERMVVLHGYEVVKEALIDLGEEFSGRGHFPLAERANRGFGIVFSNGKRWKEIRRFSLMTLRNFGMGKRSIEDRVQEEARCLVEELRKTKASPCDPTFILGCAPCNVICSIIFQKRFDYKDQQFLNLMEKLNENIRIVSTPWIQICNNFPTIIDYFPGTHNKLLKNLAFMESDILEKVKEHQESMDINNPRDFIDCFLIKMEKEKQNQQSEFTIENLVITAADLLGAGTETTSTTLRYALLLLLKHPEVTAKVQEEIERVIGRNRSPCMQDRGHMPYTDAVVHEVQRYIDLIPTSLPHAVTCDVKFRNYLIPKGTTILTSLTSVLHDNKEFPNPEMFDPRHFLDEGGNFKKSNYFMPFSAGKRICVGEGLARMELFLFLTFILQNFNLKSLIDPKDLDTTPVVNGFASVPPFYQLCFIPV

inhibition [1]	inhibition [2]	inhibition [3]	IC50 [4]	Ki [4]	inhibition [5]	Ki [6]	Ki [8]	inhibition [9]	inhibition [10]	inhibition at 10 µM [11]	inhibition [12]	inhibition at 10 µM [13]	inhibition [14]	inhibition [15]	inhibition [16]	inhibition [17]	inhibition [18]	inhibition [19]	Compound	further results
< 30%	< 30%	< 30%	10 nM	10.1 nM	< 30%	59.8 nM	202 nM	< 30%	< 30%	< 30%	< 30%	< 30%	< 30%	< 30%	< 30%	< 30%	< 30%	< 30%	Cc1c(CN2CCN(S(C)(=O)=O)CC2)nc2c(N3CCOCC3)nc(-c3cnc(N)nc3)cn12	Ki [7]: 15.6 nM
< 30%	< 30%	< 30%		2.4 nM	< 30%	84 nM	212 nM	< 30%	< 30%	< 30%	< 30%	< 30%	< 30%	< 30%	< 30%	< 30%	< 30%	< 30%	CS(=O)(=O)N1CCN(Cc2cn3c(Cl)c(-c4cnc(N)nc4)nc(N4CCOCC4)c3n2)CC1	Ki [20]: 3.07 nM; Ki [21]: 1.73 nM; Ki [22]: 2.77 nM
< 30%	< 30%	< 30%			< 30%			< 30%	< 30%		< 30%		< 30%	< 30%	< 30%	< 30%	< 30%	< 30%	Cc1nc(N)ncc1-c1cn2cc(CN3CCN(S(C)(=O)=O)CC3)nc2c(N2CCOCC2)n1	
< 30%	< 30%	< 30%	0.7 nM		< 30%			< 30%	< 30%	< 30%	< 30%	< 30%	< 30%	< 30%	< 30%	< 30%	< 30%	< 30%	CS(=O)(=O)N1CCN(Cc2nc3c(N4CCOCC4)nc(-c4cnc(N)nc4)cn3c2Br)CC1	
< 30%	< 30%	< 30%			< 30%			< 30%	< 30%	< 30%	< 30%	< 30%	< 30%	< 30%	< 30%	< 30%	< 30%	< 30%	CS(=O)(=O)N1CCN(Cc2cn3cc(-c4cnc(N)nc4)nc(N4CCOCC4)c3n2)CC1	Activity [23]: Active; inhibition in vivo at 50 mg/kg/day [24]: 51%; clearance [25]: 10 mL/min/kg; inhibition in vivo at 50 mg/kg [26]: > 50%; bioavailability [27]: 90%; Activity [28]: Active
